Test results as given in US12077503B2, “Substituted cyclic amides and their use as herbicides” (FMC CORPORATION, priority 2015, dated 2024).

How the values were obtained:
Format in all cases: in vivo
Kochia (Kochia scoparia) [1] = assay: Test A preemergence; details: Bassia scoparia, pre-emergence, 240 h, preemergence, 0 to 100 scale where 0 is no effect and 100 is complete control, read-out: Kochia plant response rating; for pest or weed control at 125 g/ha: 125 g ai/ha, visual injury rating, approximately 10 d; for pest or weed control at 500 g/ha: 500 g ai/ha
In short: (§1)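 Greenhouse, ~10 d after spray; visual injury vs untreated controls, 0 = no effect, 100 = complete control. Preemergence: directed soil spray over planted seeds. Postemergence: plants 2–10 cm, 1–2 leaf stage. Loam/sand blend. Compound in non-phytotoxic solvent with surfactant.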

[2] = system: barnyardgrass (Echinochloa crus-galli); assay: Test A preemergence; details: Echinochloa crus-galli, pre-emergence, 240 h, preemergence, 0 to 100 scale where 0 is no effect and 100 is complete control, read-out: Barnyardgrass plant response rating; for pest or weed control at 125 g/ha: 125 g ai/ha, visual injury rating, approximately 10 d; for pest or weed control at 500 g/ha: 500 g ai/ha
In short: as §1

[3] = system: giant foxtail (Setaria faberii); assay: Test A preemergence; details: Setaria faberi, pre-emergence, 240 h, preemergence, 0 to 100 scale where 0 is no effect and 100 is complete control, read-out: Foxtail, Giant plant response rating; for pest or weed control at 125 g/ha: 125 g ai/ha, visual injury rating, approximately 10 d; for pest or weed control at 500 g/ha: 500 g ai/ha
In short: as §1

[4] = system: pigweed (Amaranthus retroflexus); assay: Test A preemergence; details: Amaranthus retroflexus, pre-emergence, 240 h, preemergence, 0 to 100 scale where 0 is no effect and 100 is complete control, read-out: Pigweed plant response rating; for pest or weed control at 125 g/ha: 125 g ai/ha, visual injury rating, approximately 10 d; for pest or weed control at 500 g/ha: 500 g ai/ha
[5] = system: ragweed (common ragweed, Ambrosia elatior); assay: Test A preemergence; details: Ambrosia artemisiifolia, pre-emergence, 240 h, preemergence, 0 to 100 scale where 0 is no effect and 100 is complete control, read-out: Ragweed plant response rating; for pest or weed control at 125 g/ha: 125 g ai/ha, visual injury rating, approximately 10 d; for pest or weed control at 500 g/ha: 500 g ai/ha
In short: as §1

[6] = system: ryegrass, Italian (Italian ryegrass, Lolium multiflorum); assay: Test A preemergence; details: Lolium multiflorum, pre-emergence, 240 h, preemergence, 0 to 100 scale where 0 is no effect and 100 is complete control, read-out: Ryegrass, Italian plant response rating; for pest or weed control at 125 g/ha: 125 g ai/ha, visual injury rating, approximately 10 d; for pest or weed control at 500 g/ha: 500 g ai/ha
In short: as §1

[7] = system: Galium (catchweed bedstraw, Galium aparine); assay: Test A postemergence; details: Galium, post-emergence, 240 h, postemergence; for pest or weed control at 125 g/ha: 125 g ai/ha, visual injury vs untreated controls after approx. 10 d, 0 = no effect, 100 = complete control, read-out: Galium plant response rating (0 to 100 scale); for pest or weed control at 500 g/ha: 500 g ai/ha, 0 to 100 scale, 0 is no effect, 100 is complete control, read-out: Galium plant response rating
In short: as §1

Kochia (Kochia scoparia) [8] = assay: Test A postemergence; details: Bassia scoparia, post-emergence, 240 h, postemergence; for pest or weed control at 125 g/ha: 125 g ai/ha, visual injury vs untreated controls after approx. 10 d, 0 = no effect, 100 = complete control, read-out: Kochia plant response rating (0 to 100 scale); for pest or weed control at 500 g/ha: 500 g ai/ha, 0 to 100 scale, 0 is no effect, 100 is complete control, read-out: Kochia plant response rating
In short: as §1

[9] = system: barnyardgrass (Echinochloa crus-galli); assay: Test A postemergence; details: Echinochloa crus-galli, post-emergence, 240 h, postemergence; for pest or weed control at 125 g/ha: 125 g ai/ha, visual injury vs untreated controls after approx. 10 d, 0 = no effect, 100 = complete control, read-out: Barnyardgrass plant response rating (0 to 100 scale); for pest or weed control at 500 g/ha: 500 g ai/ha, 0 to 100 scale, 0 is no effect, 100 is complete control, read-out: Barnyardgrass plant response rating
In short: as §1

[10] = system: blackgrass (Alopecurus myosuroides); assay: Test A postemergence; details: Alopecurus myosuroides, post-emergence, 240 h, postemergence; for pest or weed control at 125 g/ha: 125 g ai/ha, visual injury vs untreated controls after approx. 10 d, 0 = no effect, 100 = complete control, read-out: Blackgrass plant response rating (0 to 100 scale); for pest or weed control at 500 g/ha: 500 g ai/ha, 0 to 100 scale, 0 is no effect, 100 is complete control, read-out: Blackgrass plant response rating
In short: as §1

corn (Zea mays) = assay: Test A postemergence; details: Zea mays, post-emergence, 240 h, postemergence; for plant injury at 125 g/ha: 125 g ai/ha, visual injury vs untreated controls after approx. 10 d, 0 = no effect, 100 = complete control, read-out: Corn plant response rating (0 to 100 scale); for plant injury at 500 g/ha: 500 g ai/ha, 0 to 100 scale, 0 is no effect, 100 is complete control, read-out: Corn plant response rating
In short: as §1

[11] = system: giant foxtail (Setaria faberii); assay: Test A postemergence; details: Setaria faberi, post-emergence, 240 h, postemergence; for pest or weed control at 125 g/ha: 125 g ai/ha, visual injury vs untreated controls after approx. 10 d, 0 = no effect, 100 = complete control, read-out: Foxtail, Giant plant response rating (0 to 100 scale); for pest or weed control at 500 g/ha: 500 g ai/ha, 0 to 100 scale, 0 is no effect, 100 is complete control, read-out: Foxtail, Giant plant response rating
In short: as §1

[12] = system: pigweed (Amaranthus retroflexus); assay: Test A postemergence; details: Amaranthus retroflexus, post-emergence, 240 h, postemergence; for pest or weed control at 125 g/ha: 125 g ai/ha, visual injury vs untreated controls after approx. 10 d, 0 = no effect, 100 = complete control, read-out: Pigweed plant response rating (0 to 100 scale); for pest or weed control at 500 g/ha: 500 g ai/ha, 0 to 100 scale, 0 is no effect, 100 is complete control, read-out: Pigweed plant response rating
In short: as §1

[13] = system: ragweed (common ragweed, Ambrosia elatior); assay: Test A postemergence; details: Ambrosia artemisiifolia, post-emergence, 240 h, postemergence; for pest or weed control at 125 g/ha: 125 g ai/ha, visual injury vs untreated controls after approx. 10 d, 0 = no effect, 100 = complete control, read-out: Ragweed plant response rating (0 to 100 scale); for pest or weed control at 500 g/ha: 500 g ai/ha, 0 to 100 scale, 0 is no effect, 100 is complete control, read-out: Ragweed plant response rating
In short: as §1

[14] = system: ryegrass, Italian (Italian ryegrass, Lolium multiflorum); assay: Test A postemergence; details: Lolium multiflorum, post-emergence, 240 h, postemergence; for pest or weed control at 125 g/ha: 125 g ai/ha, visual injury vs untreated controls after approx. 10 d, 0 = no effect, 100 = complete control, read-out: Ryegrass, Italian plant response rating (0 to 100 scale); for pest or weed control at 500 g/ha: 500 g ai/ha, 0 to 100 scale, 0 is no effect, 100 is complete control, read-out: Ryegrass, Italian plant response rating
In short: as §1

[15] = system: wheat (Triticum aestivum); assay: Test A postemergence; details: Triticum aestivum, post-emergence, 240 h, postemergence; for plant injury at 125 g/ha: 125 g ai/ha, visual injury vs untreated controls after approx. 10 d, 0 = no effect, 100 = complete control, read-out: Wheat plant response rating (0 to 100 scale); for plant injury at 500 g/ha: 500 g ai/ha, 0 to 100 scale, 0 is no effect, 100 is complete control, read-out: Wheat plant response rating
In short: as §1

| SMILES | pest or weed control at 125 g/ha (Kochia (Kochia scoparia) [1]) [%] | pest or weed control at 500 g/ha (Kochia (Kochia scoparia) [1]) [%] | pest or weed control at 125 g/ha [2] [%] | pest or weed control at 500 g/ha [2] [%] | pest or weed control at 125 g/ha [3] [%] | pest or weed control at 500 g/ha [3] [%] | pest or weed control at 125 g/ha [4] [%] | pest or weed control at 500 g/ha [4] [%] | pest or weed control at 125 g/ha [5] [%] | pest or weed control at 500 g/ha [5] [%] | pest or weed control at 125 g/ha [6] [%] | pest or weed control at 500 g/ha [6] [%] | pest or weed control at 125 g/ha [7] [%] | pest or weed control at 500 g/ha [7] [%] | pest or weed control at 125 g/ha (Kochia (Kochia scoparia) [8]) [%] | pest or weed control at 500 g/ha (Kochia (Kochia scoparia) [8]) [%] | pest or weed control at 125 g/ha [9] [%] | pest or weed control at 500 g/ha [9] [%] | pest or weed control at 125 g/ha [10] [%] | pest or weed control at 500 g/ha [10] [%] | further results |
| --- | --- | --- | --- | --- | --- | --- | --- | --- | --- | --- | --- | --- | --- | --- | --- | --- | --- | --- | --- | --- | --- |
| Cc1cc([C@H]2CN(C)C(=O)[C@@H]2C(=O)Nc2cccc(F)c2F)on1 [Compound 1196] | 0 | 0 | 50 | 90 | 70 | 90 | 0 | 0 | 0 | 0 | 0 | 0 | 0 | 0 | 0 | 0 | 70 | 90 | 0 | 0 | plant injury at 125 g/ha (corn (Zea mays)): 0%; plant injury at 500 g/ha (corn (Zea mays)): 0%; pest or weed control at 125 g/ha [11]: 30%; pest or weed control at 500 g/ha [11]: 80%; pest or weed control at 125 g/ha [12]: 0%; pest or weed control at 500 g/ha [12]: 0%; pest or weed control at 125 g/ha [13]: 0%; pest or weed control at 500 g/ha [13]: 0%; pest or weed control at 125 g/ha [14]: 0%; pest or weed control at 500 g/ha [14]: 0%; plant injury at 125 g/ha [15]: 0%; plant injury at 500 g/ha [15]: 0% |
| CN1CC[C@H](c2ccc(C(F)(F)F)cc2)[C@@H](C(=O)Nc2ccc(F)c(F)c2F)C1=O [Compound 1226] | 60 | 70 | 90 | 100 | 100 | 100 | 80 | 90 | 0 | 30 | 80 | 80 | 80 | 80 | 60 | 60 | 100 | 100 | 20 | 30 | plant injury at 125 g/ha (corn (Zea mays)): 30%; plant injury at 500 g/ha (corn (Zea mays)): 70%; pest or weed control at 125 g/ha [11]: 80%; pest or weed control at 500 g/ha [11]: 80%; pest or weed control at 125 g/ha [12]: 20%; pest or weed control at 500 g/ha [12]: 60%; pest or weed control at 125 g/ha [13]: 0%; pest or weed control at 500 g/ha [13]: 50%; pest or weed control at 125 g/ha [14]: 0%; pest or weed control at 500 g/ha [14]: 0%; plant injury at 125 g/ha [15]: 0%; plant injury at 500 g/ha [15]: 0% |
